Test results taken from patent US9169254B2, “Spiroimidazolone derivative” (Chugai Seiyaku Kabushiki Kaisha, priority 2009, dated 2015).

Target: T1, human PTH1 receptor (Homo sapiens, UniProt Q03431)
T1 sequence (Q03431 27-593): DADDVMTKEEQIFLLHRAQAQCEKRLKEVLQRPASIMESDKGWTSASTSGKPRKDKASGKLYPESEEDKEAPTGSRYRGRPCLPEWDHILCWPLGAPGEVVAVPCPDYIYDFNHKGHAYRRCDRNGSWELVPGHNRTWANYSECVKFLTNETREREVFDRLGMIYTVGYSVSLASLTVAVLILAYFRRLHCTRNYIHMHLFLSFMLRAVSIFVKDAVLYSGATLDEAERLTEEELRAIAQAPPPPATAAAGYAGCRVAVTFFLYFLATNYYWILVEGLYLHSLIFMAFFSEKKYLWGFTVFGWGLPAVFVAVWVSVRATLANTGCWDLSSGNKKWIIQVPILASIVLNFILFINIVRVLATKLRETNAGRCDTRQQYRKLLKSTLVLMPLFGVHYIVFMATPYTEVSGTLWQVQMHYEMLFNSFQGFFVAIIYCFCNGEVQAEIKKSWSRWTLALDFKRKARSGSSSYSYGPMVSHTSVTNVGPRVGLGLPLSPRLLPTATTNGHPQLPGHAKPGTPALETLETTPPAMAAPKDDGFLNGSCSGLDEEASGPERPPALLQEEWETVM
Test: In vitro cAMP signal activity in HKRK-B7 cells (LLC-PK1 cells overexpressing the human PTH1 receptor)
Format: cell-based
Conditions: HKRK-B7 cells, compound at 1×10^−3 M

[1] = cAMP produced as percentage of that produced by hPTH(1-34) at 100 nM

cAMP production activity (%) [1]	Compound	cAMP production activity (%) ([…], 0.1 µM)
89%	Cc1cc(N2C(=O)CNC2=O)ccc1CCS(=O)(=O)N1CCC2(CC1)N=C(C1CCC(C(F)(F)F)CC1)NC2=O (stereo not drawn) [Compound 947, 3-(3-methyl-4-{2-[4-oxo-2-(4-trifluoromethyl-cyclohexyl)-1,3,8-triaza-spiro[4.5]dec-1-ene-8-sulfonyl]-ethyl}-phenyl)-imidazolidine-2,4-dione]	–
68%	Cc1cc(N2C(=O)CNC2=O)ccc1CCS(=O)(=O)N1CCC2(CC1)N=C([C@H]1CC[C@H](CC(F)(F)F)CC1)NC2=O [Compound 948, 3-[3-Methyl-4-(2-{4-oxo-2-[4-(2,2,2-trifluoro-ethyl)-cyclohexyl]-1,3,8-triaza-spiro[4.5]dec-1-ene-8-sulfonyl}-ethyl)-phenyl]-imidazolidine-2,4-dione]	–
92%	CCC[C@@H]1CCC[C@H](C2=NC3(CCN(S(=O)(=O)CCc4ccc(N5C(=O)CNC5=O)cc4C)CC3)C(=O)N2)C1 [Compound 949, 3-(3-methyl-4-{2-[4-oxo-2-((1S,3R)-3-propyl-cyclohexyl)-1,3,8-triaza-spiro[4.5]dec-1-ene-8-sulfonyl]-ethyl}-phenyl)-imidazolidine-2,4-dione]	–
59%	Cc1cc(N2C(=O)CNC2=O)ccc1CCS(=O)(=O)N1CCC2(CC1)N=C([C@H]1CCC[C@@H](C)C1)NC2=O [Compound 950, 3-(3-methyl-4-{2-[2-((1S,3R)-3-methyl-cyclohexyl)-4-oxo-1,3,8-triaza-spiro[4.5]dec-1-ene-8-sulfonyl]-ethyl}-phenyl)-imidazolidine-2,4-dione]	–
93%	Cc1cc(N2C(=O)CNC2=O)ccc1CCS(=O)(=O)N1CCC2(CC1)N=C(C1CCC(C)(C)CC1)NC2=O [Compound 951, 3-(4-{2-[2-(4,4-dimethyl-cyclohexyl)-4-oxo-1,3,8-triaza-spiro[4.5]dec-1-ene-8-sulfonyl]-ethyl}-3-methyl-phenyl)-imidazolidine-2,4-dione]	–
95%	Cc1cc(N2C(=O)CNC2=O)ccc1CCS(=O)(=O)N1CCC2(CC1)N=C(C1CC(C)(C)CC(C)(C)C1)NC2=O [Compound 952, 3-(3-methyl-4-{2-[4-oxo-2-(3,3,5,5-tetramethyl-cyclohexyl)-1,3,8-triaza-spiro[4.5]dec-1-ene-8-sulfonyl]-ethyl}-phenyl)-imidazolidine-2,4-dione]	–
77%	CCC1CCC(C2=NC3(CCN(S(=O)(=O)CCc4cc(Cl)c(NC(C)=O)cc4C)CC3)C(=O)N2)CC1 (stereo not drawn) [Compound 953, N-(2-Chloro-4-{2-[2-(4-ethyl-cyclohexyl)-4-oxo-1,3,8-triaza-spiro[4.5]dec-1-ene-8-sulfonyl]-ethyl}-5-methyl-phenyl)-acetamide]	–
81%	CCC1CCC(C2=NC3(CCN(S(=O)(=O)CCc4ccc(NC(C)=O)c(Cl)c4C)CC3)C(=O)N2)CC1 (stereo not drawn) [Compound 954, N-(2-chloro-4-{2-[2-(4-ethyl-cyclohexyl)-4-oxo-1,3,8-triaza-spiro[4.5]dec-1-ene-8-sulfonyl]-ethyl}-3-methyl-phenyl)-acetamide]	–
79%	CC(=O)Nc1ccc(CCS(=O)(=O)N2CCC3(CC2)N=C([C@H]2CC[C@H](CCC(F)F)CC2)NC3=O)c(C)c1 [Compound 955, N-[4-(2-{2-[4-(3,3-Difluoro-propyl)-cyclohexyl]-4-oxo-1,3,8-triaza-spiro[4.5]dec-1-ene-8-sulfonyl}-ethyl)-3-methyl-phenyl]-acetamide]	–
87%	Cc1cc(N2C(=O)CNC2=O)ccc1CCS(=O)(=O)N1CCC2(CC1)N=C(C1CCC(CCC(F)F)CC1)NC2=O (stereo not drawn) [Compound 956, 3-[4-(2-{2-[4-(3,3-difluoro-propyl)-cyclohexyl]-4-oxo-1,3,8-triaza-spiro[4.5]dec-1-ene-8-sulfonyl}-ethyl)-3-methyl-phenyl]-imidazolidine-2,4-dione]	–
–	O=C(Nc1ccccc1)c1ccccc1S(=O)(=O)N1CCC2(CC1)N=C(C1CCCCC1)NC2=O [Compound 957, 2-(2-Cyclohexyl-4-oxo-1,3,8-triaza-spiro[4.5]dec-1-ene-8-sulfonyl)-N-phenyl-benzamide]	17%
49%	Cc1cc(C(=O)N2CCN(C3CCN(C)CC3)CC2)ccc1CCS(=O)(=O)N1CCC2(CC1)N=C(c1cccc(C(F)(F)F)c1)NC2=O [Compound 958]	–
77%	Cc1cc(C(=O)N2CC[C@@H](F)C2)cc(C)c1/C=C/S(=O)(=O)N1CCC2(CC1)N=C(c1cccc(OC(F)(F)F)c1)NC2=O [Compound 959, 8-{(E)-2-[4-((R)-3-Fluoro-pyrrolidine-1-carbonyl)-2,6-dimethyl-phenyl]-ethenesulfonyl}-2-(3-trifluoromethoxy-phenyl)-1,3,8-triaza-spiro[4.5]dec-1-en-4-one]	–
84%	Cc1cc(C(=O)N2CCC(CO)CC2)cc(C)c1/C=C/S(=O)(=O)N1CCC2(CC1)N=C(c1cccc(OC(F)(F)F)c1)NC2=O [Compound 960, 8-{(E)-2-[4-(4-hydroxymethyl-piperidine-1-carbonyl)-2,6-dimethyl-phenyl]-ethenesulfonyl}-2-(3-trifluoromethoxy-phenyl)-1,3,8-triaza-spiro[4.5]dec-1-en-4-one]	–
92%	Cc1cc(C(=O)N(C)C)cc(C)c1/C=C/S(=O)(=O)N1CCC2(CC1)N=C(c1cccc(OC(F)(F)F)c1)NC2=O [Compound 961, 3,5,N,N-tetramethyl-4-{(E)-2-[4-oxo-2-(3-trifluoromethoxy-phenyl)-1,3,8-triaza-spiro[4.5]dec-1-ene-8-sulfonyl]-vinyl}-benzamide]	–
86%	Cc1cc(C(N)=O)cc(C)c1/C=C/S(=O)(=O)N1CCC2(CC1)N=C(c1cccc(OC(F)(F)F)c1)NC2=O [Compound 962, 3,5-dimethyl-4-{(E)-2-[4-oxo-2-(3-trifluoromethoxy-phenyl)-1,3,8-triaza-spiro[4.5]dec-1-ene-8-sulfonyl]-vinyl}-benzamide]	–
16%	Cc1cc(C(=O)N2CC(F)C2)cc(C)c1/C=C/S(=O)(=O)N1CCC2(CC1)N=C(c1cccc(OC(F)(F)F)c1)NC2=O [Compound 963, 8-{(E)-2-[4-(3-Fluoro-azetidine-1-carbonyl)-2,6-dimethyl-phenyl]-ethenesulfonyl}-2-(3-trifluoromethoxy-phenyl)-1,3,8-triaza-spiro[4.5]dec-1-en-4-one]	–
119%	Cc1cc(C(=O)N2CCC(O)CC2)cc(C)c1CCS(=O)(=O)N1CCC2(CC1)N=C(c1cccc(OC(F)(F)F)c1)NC2=O [Compound 964, 8-{2-[4-(4-Hydroxy-piperidine-1-carbonyl)-2,6-dimethyl-phenyl]-ethanesulfonyl}-2-(3-trifluoromethoxy-phenyl)-1,3,8-triaza-spiro[4.5]dec-1-en-4-one]	–
115%	Cc1cc(C(=O)N2CC(O)C2)cc(C)c1CCS(=O)(=O)N1CCC2(CC1)N=C(c1cccc(OC(F)(F)F)c1)NC2=O [Compound 965, 8-{2-[4-(3-hydroxy-azetidine-1-carbonyl)-2,6-dimethyl-phenyl]-ethanesulfonyl}-2-(3-trifluoromethoxy-phenyl)-1,3,8-triaza-spiro[4.5]dec-1-en-4-one]	–
82%	Cc1cc(C(=O)N2CCC(CO)CC2)cc(C)c1CCS(=O)(=O)N1CCC2(CC1)N=C(c1cccc(OC(F)(F)F)c1)NC2=O [Compound 966, 8-{2-[4-(4-hydroxymethyl-piperidine-1-carbonyl)-2,6-dimethyl-phenyl]-ethanesulfonyl}-2-(3-trifluoromethoxy-phenyl)-1,3,8-triaza-spiro[4.5]dec-1-en-4-one]	–
44%	Cc1cc(C(=O)N2CC3(COC3)C2)cc(C)c1/C=C/S(=O)(=O)N1CCC2(CC1)N=C(c1ccc(F)c(C(F)(F)F)c1)NC2=O [Compound 967, 8-{(E)-2-[2,6-Dimethyl-4-(2-oxa-6-aza-spiro[3.3]heptane-6-carbonyl)-phenyl]-ethenesulfonyl}-2-(4-fluoro-3-trifluoromethyl-phenyl)-1,3,8-triaza-spiro[4.5]dec-1-en-4-one]	–
69%	Cc1cc(C(=O)N2CCNC(=O)C2)cc(C)c1/C=C/S(=O)(=O)N1CCC2(CC1)N=C(c1ccc(F)c(C(F)(F)F)c1)NC2=O [Compound 968, 8-{(E)-2-[2,6-Dimethyl-4-(3-oxo-piperazine-1-carbonyl)-phenyl]-ethenesulfonyl}-2-(4-fluoro-3-trifluoromethyl-phenyl)-1,3,8-triaza-spiro[4.5]dec-1-en-4-one]	–
45%	Cc1cc(C(=O)N2C[C@@H](C)N[C@@H](C)C2)cc(C)c1/C=C/S(=O)(=O)N1CCC2(CC1)N=C(c1ccc(F)c(C(F)(F)F)c1)NC2=O [Compound 969, 8-{(E)-2-[4-((3R,5S)-3,5-dimethyl-piperazine-1-carbonyl)-2,6-dimethyl-phenyl]-ethenesulfonyl}-2-(4-fluoro-3-trifluoromethyl-phenyl)-1,3,8-triaza-spiro[4.5]dec-1-en-4-one]	–
112%	Cc1cc(C(=O)N2CC(C)(O)C2)cc(C)c1/C=C/S(=O)(=O)N1CCC2(CC1)N=C(c1ccc(F)c(C(F)(F)F)c1)NC2=O [Compound 970, 2-(4-fluoro-3-trifluoromethyl-phenyl)-8-{(E)-2-[4-(3-hydroxy-3-methyl-azetidine-1-carbonyl)-2,6-dimethyl-phenyl]-ethenesulfonyl}-1,3,8-triaza-spiro[4.5]dec-1-en-4-one]	–
